Source: patent US20190321417A1, “BACTERIAL PROBIOTIC TO DETOXIFY HERBICIDES AND INSECTICIDES” (PRESIDENT AND FELLOWS OF HARVARD COLLEGE, priority 2018, published 2019)

What was measured:
[1] = system: Nasonia; test: Herbicide toxicity (LC50) in adult Nasonia from generationally-atrazine exposed and naïve populations; format: in vivo, Nasonia virtipennis; settings: 24 hr old adults
Excerpt: (§1) FIGS. 3A-3C present data that show atrazine resistance. (FIG. 3A) The median lethal concentration of atrazine to kill half of the population (LC50) in ppm for each generation of the Naïve populations (open circles) and the Atrazine exposed populations (black circles). (FIG. 3B) The median lethal concentration of atrazine to kill half of the population (LC50) in ppm for each generation of the Naïve populations (open circles) and the Atrazine exposed populations (black circles) when grown Germfree, gnotobiotic. Without bacteria, both populations experience increased toxicity of atrazine, over 100 fold greater than normal generations' LC50. (FIG. 3C) LC50 survival of 24 hrs old adult Nasonia virtipennis were sprayed with a sterile PBS solution (squares), S. marcescens TVIT01 (8×10^6 cells/ml, circles), or P. protegens TVIT02 (3×10^8 cells/ml, triangles) and incubated for 6 hr before being fed 100 ppm of atrazine sugar solution (A) or only sugar solution (C), and their survival was calculated 48 hrs later. Three replicates of 50 individuals are for each treated group (Two-tailed t test, *P<0.05).
Toxicity experiments were conducted at a range of concentrations for both atrazine and Glyphosate to test the effect that the new microbiome has on increasing resistance. 50 adults (24 hr old) were put into vials from either the generationally-atrazine exposed populations or the naïve populations and exposed to atrazine or glyphosate at parts per million concentrations of 0 ppm, 10 ppm, 30 ppm, 100 ppm, 200 ppm, 400 ppm, 600 ppm, 800 ppm, 1000 ppm. Mortality was recorded after 0, 24, 48, 72, 96, 120, 168 hours (from atrazine exposure point). These were conducted in concurrent replicate experiments.

[2] = system: Nasonia; test: Atrazine toxicity in germfree, gnotobiotic Nasonia populations; format: in vivo, Nasonia virtipennis; settings: both exposed and naïve populations, 0-30 ppb atrazine, up to 96 hr
Excerpt: as §1
To test the role of the microbiome as a detoxicant to herbicides, both populations were tested in germfree, gnotobiotic, conditions. Survival was measured when exposed atrazine concentrations of 0, 5 ppb, 10 ppb, 15 ppb, 25 ppb, 30 ppb for up to 96 hr. […]

[3] = generationally-atrazine exposed populations

Row | SMILES | median lethal concentration to kill half of the population (LC50) [1, 3] [ppm] | median lethal concentration to kill half of the population (LC50) ([1]; naïve populations) [ppm] | increase in toxicity with bacteria removed, compared to normal [2] [fold]
1 | O=C(O)CNCP(=O)(O)O [Glyphosate, N-(phosphonomethyl)glycine] | 315 | 148 | 
2 | CCNc1nc(Cl)nc(NC(C)C)n1 [atrazine, Atrazine] | 562 | 62 | > 100
